Experimental data published in patent US9597297B2, “Combination of pilocarpin and methimazol for treating Charcot-Marietooth disease and related disorders” (PHARNEXT, priority 2008, dated 2017).
“Also recorded” adds a separate entry of the source.

How the values were obtained:
PMP22 protein = PMP22 protein expression analysis by flow cytometry (FACS) in primary rat Schwann cells; assay type: cell-based; settings: 1 μM
Experimental: One day later, primary Schwann cells are stimulated by drugs during 24 hrs (3 wells/condition). The preparation of each compound is performed just prior to its addition to the cell culture medium. The following PCR conditions are used: Denaturation 5 min at 95° C. followed by 10 sec at 95° C., 40 sec at 60° C. and 10 sec at 72° C. and 1 min at 40° C. (Forty amplification cycles). The relative levels of PMP22 gene expression are measured following the Ct method comparing the quantity of products generated from the target gene PMP22 and the […] 8 hrs, 24 hrs and 48 hrs after drugs incubation, supernatants of primary rat Schwann cells are recovered, centrifuged and frozen. SC are detached with trypsin-EDTA. As soon as the majority of cells are in suspension, the trypsin is neutralised using DMEM with 10% FCS. Supernatants with cells are recovered and centrifuged. […] Forward Scatter (FSC) correlated with cell volume (size) and Side Scatter (SSC) depending on inner complexity of cells (granularity) are analysed. For expression of PMP22, analysis is performed within the total cells and percent of positive cells is calculated. Positive cells are cells with fluorescence intensity higher than the control with secondary antibody.

[1] = tested on: CMT transgenic rat model (PMP22 transgenic rats); test: Bar test in CMT transgenic rats; assay type: in vivo; settings: for time of treatment at which bar test effect becomes statistically significant: force-feeding; for bar test performances: female CMT TG rats vs TG placebo, methimazole 0.35 mg/kg, pilocarpine 0.2 mg/kg as printed in b214
Text: The inventors have tested compounds and combinations for therapeutic effect in CMT transgenic rat model, a hemizygous PMP22 transgenic rats bearing three additional copies of mouse PMP22 gene show signs of demyelination in peripheral and cranial nerves, (Sereda et al., 1996; Grandis et al., 2004). At the mRNA level, an average 1.6-fold overexpression of PMP22 in CMT rats correlates with the clinical phenotype. A putative threshold level of PMP22 overexpression at which the wild type gene turns into a disease gene represents an obvious “target” to reach by treatment aimed at reducing PMP22 gene expression.
The inventors have tested the compounds and combinations for therapeutic effect in a rat model. The experimental groups are formed with young rats of both genders separately. The rats are assigned to the groups following randomization schedule based on the body weight. In some experiments the randomization is based on the performances of the rats in the bar test. Both genders are represented by separate control littermates groups that are numerically equal or bigger than the treatment groups.
The rats are treated chronically with drugs—force fed or injected by Alzet osmotic subcutaneous pump (DURECT Corporation Cupertino, Calif.), depending on each drug bioavailability during 3 or 6 weeks.
Each three or four weeks the animals are subjected to a behavioural test. Each test is conducted by the same investigator in the same room and at the same time of the day; this homogeneity is maintained throughout entire experiment. All treatments and genotype determination are blinded for the investigator. “Bar test” and “Grip strength” has been mainly used to access the performance throughout study. The schedule of the bar test may change as the animal growth (in order to avoid the bias due to the learning, for example).
The bar test evaluates rats' ability to hold on a fix rod. […] The rat is placed on its four paws on the middle of the rod (diameter: 2.5 cm; length: 50 cm; 30 cm above the table). Trials are performed consecutively; the number (5 or 10) and the duration (30 or 60 sec) of trials in our experiments have been depending on batches of the animals. This variability in the testing has been introduced in order to determine the schedule appropriated to the best detection of the motor deficiency in the CMT rats in the course of the experiments.
Performance indices are recorded on each session: • The number of trials needed to hold for 60 sec or 30 sec on the rod. • The mean time spent on the bar (i.e. the fall latency) in each trial and the average on the session. In the experimental procedures the session ends after the rat has stayed two times for a cut-off time, i.e. 30 or 60 s, on the bar. A performance of the cut-off time (30 s or 60 s) is assigned to trials not completed. • The number of falls.

[2] = Body weight of CMT rats during treatment; assay type: in vivo, rat; settings: treated group comparatively with placebo group, data not shown
Experimental: The animals are weighted twice a week in order to adjust the doses to growing body weight. If the osmotic pump is chosen for the treatment administration, the doses of the drug are calculated on the basis of the estimated mean body weight of the animals expected for their age over the period of the pump duration (6 weeks). The pumps are re-implanted if necessary, with the appropriated anaesthesia protocol.
Body weights, overt signs (coat appearance, body posture, tremor) of the animals are monitored throughout the experiment. The rating scale is used for recording: 0=normal, 1=abnormal.

SMILES	decrease of PMP22 protein level of expression (PMP22 protein; 24 hrs of incubation) [%]	change of PMP22 protein level of expression (PMP22 protein; 48 hrs of incubation, p<0.001) [%]	bar test performance compared with WT placebo group ([1]; CMT TG rats, daily forced feeding)	time of treatment at which bar test effect becomes statistically significant ([1]; CMT TG rats) [weeks]	bar test performances ([1]; daily forced feeding)	bar test performances ([1]; daily forced feeding, listed as Methimazole)	entire body weight [2]
CC[C@@H]1C(=O)OC[C@@H]1Cc1cncn1C [pilocarpine, (3S,4R)-3-ethyl-4-[(3-methylimidazol-4-yl)methyl]oxolan-2-one]	38	−18	no more significantly differs from that of the WT placebo group	8	improve bar test performances; also recorded: significantly more performing	–	–
Cn1cc[nH]c1=S [methimazole, 1-methyl-3H-imidazole-2-thione]	–	–	–	8	significantly more performing	improve bar test performances	rather diminished
